Test results taken from patent US10844349B2 (Albumedix Ltd., priority 2011, dated 2020).

What was measured:
[1] = Microtitre plate insoluble aggregate test: time for A350 to increase by 0.2 AU at 65° C.; type: physicochemical; conditions: cation chlorides 50-500 mM, albumin 10 mg/mL, pH 6.43, 65° C.
Experimental: The microtitre plate was gently rocked to mix the contents of each well, centrifuged to remove any air bubbles and placed in a Biotek Synergy Mx (Potton, UK) plate reader that had been pre-equilibrated and controlled at 65° C. The plate was then read at 350 nm every minute over a total incubation time of 8 hours. Gen5 software (Biotek software for the plate reader version 2.00.18) was used to calculate the time taken for the A350 nm absorbance to increase by 0.2 adsorption units above a base line. The base line was calculated from the mean of the first 5 data points.

[2] = system: Human embryonic stem cells (cell lines SAl21 and SA181); test: Effect of octanoate on stem cell culture (attachment, growth, undifferentiated state over 5 passages; text summary for both cell lines); type: cell-based; conditions: 8 mM octanoate in 100 g/L albumin
Experimental: The effect of octanoate on stem cell culture was carried out by a contract research organization: Cellartis AB (Gothenburg, Sweden). […] The cell growth over the 5 passages was assessed by monitoring the cell doubling times during consecutive passages in cell production. The doubling times of cultures should be within a range of 28-40 hours, and can be seen as a trend indicator.

| albumin stability (time for A350 to increase by 0.2 AU) [1] | Compound | toxicity to stem cells [2] |
| --- | --- | --- |
| very good | [Cl-].[Cl-].[Mg+2] [MgCl2] |  |
|  | CCCCCCCC(=O)O [octanoate] | toxic to stem cells |
